Test results: ChEMBL document CHEMBL5390305, “Discovery of Ligands for TRIM58, a Novel Tissue-Selective E3 Ligase” (ACS Med Chem Lett, 2023)
In brackets after ≈: the same amount, converted by molar mass.

Assays:
[1] = target: T1, E3 ubiquitin-protein ligase TRIM58 (Homo sapiens, UniProt Q8NG06); assay: Displacement of Ac-DKSDLKAELERKK-C(BODIPY-FL-M)-RLAQIREEKKRKEE-NH2 peptide probe from TRIM58 (279 to 466 residue) (unknown origin) preincubated for 30 mins followed by probe addition by fluorescence polarization method
T1 sequence (Q8NG06 whole entry): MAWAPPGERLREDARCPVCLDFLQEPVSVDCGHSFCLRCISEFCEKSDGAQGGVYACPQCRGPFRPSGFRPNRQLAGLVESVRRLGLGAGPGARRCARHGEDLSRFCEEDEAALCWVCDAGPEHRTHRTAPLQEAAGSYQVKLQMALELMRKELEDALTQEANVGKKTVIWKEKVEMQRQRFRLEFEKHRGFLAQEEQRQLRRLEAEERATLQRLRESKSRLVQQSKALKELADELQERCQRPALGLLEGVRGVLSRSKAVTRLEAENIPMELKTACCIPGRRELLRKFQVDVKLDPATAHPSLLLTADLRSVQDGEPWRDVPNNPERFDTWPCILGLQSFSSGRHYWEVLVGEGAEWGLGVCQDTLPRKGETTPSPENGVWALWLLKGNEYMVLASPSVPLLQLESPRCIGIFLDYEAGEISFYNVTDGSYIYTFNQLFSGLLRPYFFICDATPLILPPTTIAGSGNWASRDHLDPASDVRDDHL

[2] = Apparent permeability across apical to basolateral side in low efflux MDCK cells; assay type: ADME, cell-based, Canis lupus familiaris; details: dog
[3] = Lipophilicity, log D of the compound in octanol/buffer system at pH 7.4 by shake-flask based LC/MSMS analysis; assay type: physicochemical
[4] = Solubility of the compound at pH 6.8 by high-throughput equilibrium solubility assay; assay type: physicochemical; details: buffer
[5] = target: T1, E3 ubiquitin-protein ligase TRIM58; assay: Binding affinity against N-terminal 6His-tagged TRIM58 (251 to 466 residue) (unknown origin) expressed in Escherichia coli BL21 (DE3) by SPR assay

Q: Which results are given for `CNc1nc(NCC2CCNCC2)c2ccccc2n1`?
A: EC50 [1]: > 100 µM; Papp A→B [2]: 1.6 ×10⁻⁶ cm/s; logD [3]: -0.8; solubility thermodynamic [4]: > 750 µM

Q: For `c1ccc2cc(-c3nn[nH]n3)c(NCC3CCNCC3)cc2c1`, which EC50 [1] is on record?
A: > 100 µM

Q: For `CNc1nc(NCC2CCNCC2)c2cc(C3CCCCC3)ccc2n1`, which EC50 [1] is on record?
A: 6.6 µM

Q: And the Papp A→B [2]?
A: 1.1 ×10⁻⁶ cm/s

Q: What about the logD [3] of the same compound?
A: 0.5

Q: What about the solubility thermodynamic [4] of the same compound?
A: > 750 µM

Q: With `CCCCCCNc1nc(NCCCN(C)C)nc2ccc(-c3ccccc3)cc12` as the compound, how does the EC50 [1] read?
A: 7.4 µM

Q: What about the Papp A→B [2] of the same compound?
A: 19 ×10⁻⁶ cm/s

Q: And the logD [3]?
A: 4

Q: And the solubility thermodynamic [4]?
A: 60 µM (≈ 24.3 µg/mL)

Q: For `CN(C)CCCNc1nc(NCC2CCNCC2)c2cc(-c3ccccc3)ccc2n1`, which EC50 [1] is on record?
A: 5.3 µM

Q: And the Kd [5]?
A: 24 µM

Q: And the logD [3]?
A: < -1

Q: What about the solubility thermodynamic [4] of the same compound?
A: > 1000 µM

Q: With `c1ccc(-c2ccc3nc(NCC4CC4)nc(NCC4CCNCC4)c3c2)cc1` as the compound, how does the EC50 [1] read?
A: 8.6 µM

Q: And the Papp A→B [2]?
A: 3.5 ×10⁻⁶ cm/s

Q: What about the logD [3] of the same compound?
A: 1.1

Q: What about the solubility thermodynamic [4] of the same compound?
A: 20 µM (≈ 7.75 µg/mL)

Q: With `CNCCCNc1nc(NCC2CCNCC2)c2cc(-c3ccccc3)ccc2n1` as the compound, how does the EC50 [1] read?
A: > 100 µM

Q: What about the Papp A→B [2] of the same compound?
A: 0.6 ×10⁻⁶ cm/s

Q: What about the logD [3] of the same compound?
A: 1.2

Q: What about the solubility thermodynamic [4] of the same compound?
A: > 750 µM

Q: For `CNc1nc(NCC2CCNCC2)c2cc(-c3ccccc3)ccc2n1`, which EC50 [1] is on record?
A: 12 µM

Q: What about the Papp A→B [2] of the same compound?
A: 1.6 ×10⁻⁶ cm/s

Q: And the solubility thermodynamic [4]?
A: 80 µM (≈ 27.8 µg/mL)

Q: Which results are given for `CNc1nc(NC)c2cc(-c3ccccc3)ccc2n1`?
A: EC50 [1]: 75 µM; logD [3]: 1.7; solubility thermodynamic [4]: 100 µM (≈ 26.4 µg/mL)

Q: What does the source list for `CN(C)CCCNc1nc(NCCc2ccccc2)c2cc(-c3ccccc3)ccc2n1`?
A: EC50 [1]: 12.7 µM; Papp A→B [2]: 24 ×10⁻⁶ cm/s; logD [3]: 3.3; solubility thermodynamic [4]: 40 µM (≈ 17 µg/mL)

Q: With `CNc1nc(OCC2CCNCC2)c2cc(-c3ccccc3)ccc2n1` as the compound, how does the EC50 [1] read?
A: 74 µM

Q: What about the Papp A→B [2] of the same compound?
A: 29 ×10⁻⁶ cm/s

Q: What about the logD [3] of the same compound?
A: -0.5

Q: And the solubility thermodynamic [4]?
A: > 750 µM
